Source: paper PMC9182348, “Adamantane-Monoterpenoid Conjugates Linked via Heterocyclic Linkers Enhance the Cytotoxic Effect of Topotecan” (Molecules, 2022)
Entries after “also recorded” stand apart in the source; their conditions may differ.

Experiments:
TDP1 = TDP1 (Homo sapiens, UniProt Q9NUW8); assay: TDP1 activity, real-time fluorescence biosensor assay; assay type: biochemical
[1] = Intrinsic cytotoxicity, EZ4U assay, HEK293A; assay type: cell-based; conditions: human, HEK293A cells, compound alone
Protocol: (§1) Next, we tested the compounds’ intrinsic toxicity against cervical cancer HeLa cells and non-cancerous HEK293A immortalized human embryonic kidney cells using the EZ4U assay format.
(§2) The cytotoxicity of the compounds to HeLa (human cervical cancer) and HEK293A (human embryonic kidney) cell lines was examined using the EZ4U Cell Proliferation and Cytotoxicity Assay (Biomedica, Vienna, Austria), according to the manufacturer’s protocols. The cells were grown in DMEM (Dulbecco’s Modified Eagle’s Medium) with 50 IU/mL penicillin, 50 μg/mL streptomycin (MP Biomedicals, Santa Ana, CA, USA), and 10% of fetal bovine serum (Biolot, St. Petersburg, Russia) in a 5% CO2 atmosphere. After formation of a 30–50%-monolayer, the tested compounds were added to the medium. The volume of the added reagents was 1/100 of the total volume of the culture medium, and the amount of DMSO (Sigma, St. Louis, MO, USA) was 1% of the final volume. The cell culture was monitored for 3 days. To assess the influence of the inhibitors on the cytotoxic effect of topotecan (Selleck Chemicals, Houston, TX, USA), 50% cytotoxic concentrations of topotecan and of each inhibitor were determined to attain a defined single-agent effect. Then, a minimum of two independent tests were performed with each inhibitor in combination with topotecan. When using a combination of drugs, TDP1 inhibitors were first added, then topotecan was added immediately (within 10–15 min).

HeLa cells [2] = assay: Combination index (CI) of topotecan and TDP1 inhibitors, CompuSyn; assay type: cell-based, human
Protocol: For HeLa cells, we calculated the combination index (CI), the parameter that is used to determine the degree of drug interaction. The combination index (CI) values for the different concentrations (Supplementary Figure S3) of topotecan and TDP1 inhibitors were less than one, and for some compounds less than 0.1 (Supplementary Table S1). This indicates a strong synergistic effect of topotecan and […]. The CI values were calculated with the CompuSyn version 1.0 software.
as §2

HEK293A cells = assay: Influence of compounds on topotecan cytotoxicity, HEK293A; assay type: cell-based, human
Protocol: (§3) Then, we tested the ability of the adamantane–monoterpenoid derivatives to sensitize cells to the action of topotecan. For this, we chose a low-toxic concentration 20 μM and varied the concentrations of topotecan (Supplementary Figure S3).
(§4) In the reverse experiment, when the concentrations of the compounds were varied with 30 nM topotecan (in the experiments with HEK293A cells) or 3 μM topotecan (in the experiments with HeLa cells), respectively, a noticeable synergistic effect on HeLa cells was already observed at low concentrations of TDP1 inhibitors (1 and 5 μM) (Supplementary Figure S4). Given that the IC50 values for these compounds are >5 μM, this also indicates the presence of other targets in addition to TDP1.
as §2

HeLa cells [3] = assay: Intrinsic cytotoxicity, EZ4U assay, HeLa; assay type: cell-based, human; conditions: HeLa and HEK293A cells
Protocol: as §1, §2

[4] = Intrinsic cytotoxicity, EZ4U assay, HeLa; assay type: cell-based, human; conditions: human, HeLa cells, compound alone, 3 days
Protocol: as §1, §2

HeLa cells [5] = assay: Influence of compounds on topotecan cytotoxicity, HeLa; assay type: cell-based; conditions: Homo sapiens, topotecan alone, read-out: Tpc CC50 HeLa
Protocol: as §3, §4
The cytotoxicity of the compounds to HeLa (human cervical cancer) and HEK293A (human embryonic kidney) cell lines was examined using the EZ4U Cell Proliferation and Cytotoxicity Assay (Biomedica, Vienna, Austria), according to the manufacturer’s protocols. […] The cell culture was monitored for 3 days. To assess the influence of the inhibitors on the cytotoxic effect of topotecan (Selleck Chemicals, Houston, TX, USA), 50% cytotoxic concentrations of topotecan and of each inhibitor were determined to attain a defined single-agent effect. […]

[6] = Influence of compounds on topotecan cytotoxicity, HEK293A; assay type: cell-based, human; conditions: human, HEK293A cells; topotecan alone; read-out: Tpc CC50 HEK293A
Protocol: as §3, §4, §2

TDP1, sequence (Q9NUW8 whole entry): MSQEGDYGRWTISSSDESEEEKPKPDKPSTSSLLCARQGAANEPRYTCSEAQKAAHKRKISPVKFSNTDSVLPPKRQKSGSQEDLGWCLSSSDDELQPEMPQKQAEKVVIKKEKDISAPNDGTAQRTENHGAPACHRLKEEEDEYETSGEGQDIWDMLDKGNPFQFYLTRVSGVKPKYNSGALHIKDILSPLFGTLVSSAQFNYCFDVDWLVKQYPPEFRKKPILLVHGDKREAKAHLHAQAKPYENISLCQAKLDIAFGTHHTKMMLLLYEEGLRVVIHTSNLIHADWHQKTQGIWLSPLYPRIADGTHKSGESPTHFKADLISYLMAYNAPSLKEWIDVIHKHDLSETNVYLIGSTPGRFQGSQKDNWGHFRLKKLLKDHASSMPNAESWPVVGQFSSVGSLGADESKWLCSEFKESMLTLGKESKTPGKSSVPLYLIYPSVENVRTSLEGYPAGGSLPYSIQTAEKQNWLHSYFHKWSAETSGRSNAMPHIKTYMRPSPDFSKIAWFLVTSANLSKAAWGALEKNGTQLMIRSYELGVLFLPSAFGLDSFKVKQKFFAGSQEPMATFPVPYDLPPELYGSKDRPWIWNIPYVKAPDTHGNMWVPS

SMILES | IC50 (TDP1) [µM] | CC50 at 3 days [1] [µM] | Effect (HeLa cells [2]; Tpc 0.3 µM + 20 µM compound) | Effect (HeLa cells [2]; Tpc 0.6 µM + 20 µM compound) | CI (HeLa cells [2]; Tpc 2.5 µM + 20 µM compound) | Effect (HeLa cells [2]; Tpc 2.5 µM + 20 µM compound) | CI (HeLa cells [2]; Tpc 5.0 µM + 20 µM compound) | Effect (HeLa cells [2]; Tpc 5.0 µM + 20 µM compound) | Effect (HeLa cells [2]; Tpc […] + 20 µM compound) | melting point [°C] | intrinsic toxicity (in words) (HeLa cells [3]) | CC50 at 3 days [4] [µM] | further results
CC1=CC[C@H](CCSc2nc(C34CC5CC(CC(C5)C3)C4)n[nH]2)C1(C)C [14a, 3-(Adamantan-1-yl)-5-((2-((R)-2,2,3-trimethylcyclopent-3-en-1-yl)ethyl)thio)-1H-1,2,4-triazole] | 5.5 ± 1.5 | 47 ± 3 | 0.17 | 0.47 | 0.4461 | 0.92 | 0.7177 | 0.96 | 0.81 | 113.5 | moderate toxicity | 53 ± 8 | CI (HeLa cells [2]; Tpc […] + 20 µM compound): 0.2872; effect on the action of topotecan on HEK293A cells (in words) (HEK293A cells): protected HEK293A cells from the action of topotecan
CC1=CC[C@@H](CCSc2nc(C34CC5CC(CC(C5)C3)C4)n[nH]2)C1(C)C [14b, 3-(Adamantan-1-yl)-5-((2-((S)-2,2,3-trimethylcyclopent-3-en-1-yl)ethyl)thio)-1H-1,2,4-triazole] | 6.1 ± 0.1 | 50 ± 3 | 0.94 | – | – | – | – | – | – | 111.8 to 112.4 | moderate toxicity | 54 ± 7 | CI (HeLa cells [2]; Tpc 0.3 µM + 20 µM compound): 0.00419; CI (HeLa cells [2]; Tpc 0.5 µM + 20 µM compound): 0.00165; Effect (HeLa cells [2]; Tpc 0.5 µM + 20 µM compound): 0.97; CI (HeLa cells [2]; Tpc 1.0 µM + 20 µM compound): 0.00117; Effect (HeLa cells [2]; Tpc 1.0 µM + 20 µM compound): 0.98; CI (HeLa cells [2]; Tpc 2.0 µM + 20 µM compound): 0.00166; Effect (HeLa cells [2]; Tpc 2.0 µM + 20 µM compound): 0.98; CI (HeLa cells [2]; Tpc 4.0 µM + 20 µM compound): 0.00113; Effect (HeLa cells [2]; Tpc 4.0 µM + 20 µM compound): 0.99
CC1=CC[C@H](CC(=O)Nc2nnc(C34CC5CC(CC(C5)C3)C4)s2)C1(C)C [15a, N-(5-(Adamantan-1-yl)-1,3,4-thiadiazol-2-yl)-2-((R)-2,2,3-trimethylcyclopent-3-en-1-yl)acetamide] | 6.1 ± 2.6 | > 100 | – | – | – | – | – | – | – | 209.2 to 210.1 | – | > 100 | Effect (HeLa cells [2]; Tpc 0.3 µM + 50 µM compound): 0.27; CI (HeLa cells [2]; Tpc 0.5 µM + 50 µM compound): 0.07887; Effect (HeLa cells [2]; Tpc 0.5 µM + 50 µM compound): 0.53; CI (HeLa cells [2]; Tpc 1.0 µM + 50 µM compound): 0.06365; Effect (HeLa cells [2]; Tpc 1.0 µM + 50 µM compound): 0.73; CI (HeLa cells [2]; Tpc 2.0 µM + 50 µM compound): 0.06893; Effect (HeLa cells [2]; Tpc 2.0 µM + 50 µM compound): 0.83; CI (HeLa cells [2]; Tpc 4.0 µM + 50 µM compound): 0.07307; Effect (HeLa cells [2]; Tpc 4.0 µM + 50 µM compound): 0.9
CC1=CC[C@@H](CC(=O)Nc2nnc(C34CC5CC(CC(C5)C3)C4)s2)C1(C)C [15b, N-(5-(Adamantan-1-yl)-1,3,4-thiadiazol-2-yl)-2-((S)-2,2,3-trimethylcyclopent-3-en-1-yl)acetamide] | ~5 | > 100 | – | – | – | – | – | – | – | 210.9 | – | > 100 | Effect (HeLa cells [2]; Tpc 0.3 µM + 50 µM compound): 0.48; CI (HeLa cells [2]; Tpc 0.5 µM + 50 µM compound): 0.05563; Effect (HeLa cells [2]; Tpc 0.5 µM + 50 µM compound): 0.69; CI (HeLa cells [2]; Tpc 1.0 µM + 50 µM compound): 0.04653; Effect (HeLa cells [2]; Tpc 1.0 µM + 50 µM compound): 0.84; CI (HeLa cells [2]; Tpc 2.0 µM + 50 µM compound): 0.05382; Effect (HeLa cells [2]; Tpc 2.0 µM + 50 µM compound): 0.9; CI (HeLa cells [2]; Tpc 4.0 µM + 50 µM compound): 0.09564; Effect (HeLa cells [2]; Tpc 4.0 µM + 50 µM compound): 0.91; effect on the action of topotecan on HEK293A cells (in words) (HEK293A cells): protected HEK293A cells from the action of topotecan
CC[C@@]1(O)C(=O)OCc2c1cc1n(c2=O)Cc2cc3c(CN(C)C)c(O)ccc3nc2-1 [Tpc, topotecan] | – | – | – | – | – | – | – | – | – | – | – | – | CC50 (HeLa cells [5]): 4 ± 1.3 µM; CC50 at 3 days [6]: 0.066 ± 0.028 µM
CC1(C)[C@@H]2CC[C@@]1(C(=O)Nc1nnc(C34CC5CC(CC(C5)C3)C4)s1)C(=O)C2 [compound 16, (1S,4R)-N-(5-(Adamantan-1-yl)-1,3,4-thiadiazol-2-yl)-7,7-dimethyl-2-oxobicyclo[2.2.1]heptane-1-carboxamide] | > 30 | 23 ± 10 | 0.035 | 0.1 | 0.5114 | 0.75 | 0.8721 | 0.85 | 0.36 | 269.6 | moderate toxicity | 20 ± 8 | anti-TDP1 activity (in words) (TDP1): not exhibiting anti-TDP1 activity; also recorded: ineffective
CC1(C)[C@@H]2CC[C@@]1(CS(=O)(=O)Nc1nnc(C34CC5CC(CC(C5)C3)C4)s1)C(=O)C2 [compound 17, N-(5-(Adamantan-1-yl)-1,3,4-thiadiazol-2-yl)-1-((1S,4R)-7,7-dimethyl-2-oxobicyclo[2.2.1]heptan-1-yl)methanesulfonamide] | > 30 | > 100 | 1.0E-4 | 0.02 | 0.7924 | 0.6 | 1.176 | 0.81 | 0.25 | 200.3 to 200.5 | – | 100 ± 20 | anti-TDP1 activity (in words) (TDP1): not exhibiting anti-TDP1 activity; also recorded: ineffective
